Assay results reported in patent US20100092575A1, “Method of making treatment materials and using same to treat algae and/or pests” (priority 2004, published 2010).

Assays:
[1] = tested on: flora and fauna in the water feature; conditions: previous treatment method of the water hazard
Description: A golf course water hazard in Northern California contained large mats (i.e., growths) of string algae during the summer months. The algae were predominantly confined to the edges of the water body. […] Furthermore, a special permit is needed to apply toxic copper sulfate.

[2] = aqueous; cited from earlier work

Structure (SMILES)	effect on flora and fauna in the water feature [1]	pH values at which decomposition significantly increases [2]
O=S(=O)([O-])[O-].[Cu+2] [copper sulfate]	killed most of the flora and fauna	–
OO [hydrogen peroxide]	–	greater than 6
